Measured values taken from EP0051177A2, “Pharmaceutical preparations containing substituted ether compounds, their use, substituted ether compounds and process for their preparation” (CIBA-GEIGY AG, priority 1980, dated 1982).
Read-outs that look alike come from different tables or passages of the source.

What was measured:
[1] = tested on: Krümmungssyndrom an der Ratte; test: Analgesic effect: acetic acid-induced writhing syndrome in the rat; format: in vivo; conditions: peroral, 1 h before i.p. 3 % acetic acid, dose (by interpolation) reducing number of writhings by 50 %, counted for 20 min
Experimental: Diese Wirkung wird durch Auswertung des Krümmungssyndroms an der Ratte bestimmt. Das Krümmungssyndrom wird z.B..in weiblichen Ratten von 120-140 g (5 Tiere pro Gruppe) durch eine intraperitoneale Injektion von 0,2 ml einer 3 %igen Essigsäurelösung eine Stunde nach der oralen Verabreichung der geprüften Substanz, hervorgerufen. Die Krümmungs-Bewegungen der Versuchstiere werden während 20 Minuten gezählt.
Die analgetische (antinociceptive) Wirksamkeit einer Verbindung wird durch die Bestimmung der Dosis (durch Interpolieren), welche bei Kontrolltieren (die lediglich den Trägerstoff der Wirksubstanz erhalten haben) die Anzahl der Krümmungen um 50% vermindert, beurteilt. ( ED50).
Literatur: Ziel et al., Pain Res. and Therapy, Vol. 1, ed. Bonica and Albe, Raven Press N.Y., 1976, p. 517.

LDL-Cholesterin = test: Effect on serum lipids and lipoproteins (LDL cholesterol) in male rats after oral treatment; format: in vivo, Ratten; conditions: 50 mg/kg peroral, once daily for 3 days, twice on day 4, serum 16 h after last dose
Excerpt: Die in den Präparaten der Erfindung verwendeten Verbindungen zeigen wertvolle pharmakologische Eigenschaften, z.B. hypolipidämische Wirkungen mit günstiger Beeinflussung des Lipoproteinspektrums, ferner, insbesondere Verbindungen der Formel I, worin R3 für einen heterocyelischen Rest aromatischen Charakters, in erster Linie Pyridyl steht, analgetische Effekte. Diese pharmakologischen Eigenschaften können in Tierversuchen, vorzugsweise an Säugetieren, z.B. Ratten nachgewiesen werden. Hierbei können die Verbindungen enteral oder parenteral, vorzugsweise oral, subkutan oder intraperitoneal in einem Dosisbereich von 1 bis 100 mg/kg/Tag verabreicht werden. Beispielsweise wird die Senkung von "low und very low-density"-Lipoproteinen (LDL und VLDL), sowie die Senkung von Cholesterin und Triglyceriden im Serum wie folgt bestimmt: Männlichen Ratten verabreicht man an 3 Tagen einmal täglich 50 mg Wirkstoff peroral. Am 4. Tag werden die Tiere 2-mal behandelt. Am 5. Tag wird Serum gewonnen und die Lipoproteine werden mit einer Ultrazentrifuge aufgetrennt. Im Serum und in den isolierten Lipoproteinfraktionen werden das Cholesterin und die Triglyceride bestimmt. [K.R. Müller und R.G. Cortesi, Artery 4 (6): 564-577 (1978)].
Männliche Ratten von 180-200 g Körpergewicht erhalten an 3 Tagen einmal täglich peroral die Prüfsubstanz gelöst in Polyäthylenglykol 400. Am 4. Tag werden die Tiere zweimal, morgens und abends, behandelt. Nach der letzten Behandlung wird den Tieren das Futter entzogen. Sechzehn Stunden später werden die Ratten getötet. Aus dem Blut wird Serum gewonnen.
Gleiche Mengen Serum von je 2 Ratten aus derselben Gruppe werden vereinigt, und 0.05 EDTA (Aethylendiamintetraessigsäure) und 0,01 % Thimerosal werden zugesetzt. Die Serumlipoproteine werden durch Ultrazentrifugieren in einem Beckman 40.3 Rotor isoliert. Die VLDL (very low density lipoproteins) werden durch 24-stündiges
Zentrifugieren bei 78 000 g und der Dichte 1.006 gewonnen, die LDL (low density lipoproteins) durch 24-stündiges Zentrifugieren bei 78 000 g und der Dichte 1,040, und die HDL (high density lipoproteins) durch 24-stündiges Zentrifugieren bei 109 000 g und der Dichte 1.21.
In jeder Serumprobe und in jeder Lipoproteinfraktion werden Cholesterin und Triglyceride mit enzymatischen Methoden bestimmt. LDL-Cholesterin wurde als wichtigster Parameter für die Beurteilung der Lipidsenkung betrachtet.
Literatur: K.R. Müller und R.G. Cortesi, Artery 4(6):564-577 (1978).
Die Zahlen der folgenden Resultate geben die Aenderungen vom LDL-Cholesterin in % der Kontrolle an. Dosierung: 50 mg/kg peroral.

[2] = Rattus norvegicus, po, read-out: ED50

Molecule | ED50 [1, 2] [mg/kg] | Aenderungen vom LDL-Cholesterin in % der Kontrolle (LDL-Cholesterin) [%] | also measured
6-Methyl-2-(3-pyridyl)-5-butyloxy-5H-[1]benzopyrano[4,3-d]pyrimidin |  |  | ED50 [1]: 60 mg/kg
CCOC1Oc2ccccc2-c2nc(-c3ccccn3)ncc21 (stereo not shown) [1-(2-Pyridyl)-5-äthoxy-5H-[1]benzopyrano[4,3-d]pyrimidin] | 15 |  | 
CCCOC1Oc2ccccc2-c2nc(-c3cccc(OC)c3)ncc21 (stereo not shown) [2-(3-Methoxy-phenyl)-5-propyloxy-5H-[1]benzopyrano[4,3-d]pyrimidin] |  | -43 | 
CCCCOC1Oc2ccccc2-c2nc(-c3cccnc3)ncc21 (stereo not shown) [2-(3-Pyridyl)-5-butyloxy-5H-[1]benzopyrano[4,3-d]pyrimidin] | 5 |  | 
CCOC1Oc2ccccc2-c2nc(-c3cccnc3)ncc21 (stereo not shown) [2-(3-Pyridyl)-5-äthoxy-5H-[1]benzopyrano[4,3-d]pyrimidin] | 1.5 |  | 
CCOC1Oc2ccccc2-c2nc(-c3ccc(O)cc3)ncc21 (stereo not shown) [2-(4-Hydroxy-phenyl)-5-äthyloxy-5H-[1]benzopyrano[4,3-d]pyrimidin] |  | -69 | 
CCCOC1Oc2ccccc2-c2nc(-c3ccc(OC)cc3)ncc21 (stereo not shown) [2-(4-Methoxy-phenyl)-5-propyloxy-5H-[1]benzopyrano[4,3-d]pyrimidin] |  | -38 | 
CCCOC1Oc2ccccc2-c2nc(-c3ccncc3)ncc21 (stereo not shown) [2-(4-Pyridyl)-5-propyloxy-5H-[1]benzopyrano[4,3-d]pyrimidin] | 15 |  | 
CCCCOC1Oc2ccccc2-c2nc(-c3cccc(C)c3)ncc21 (stereo not shown) [2-(5-Methyl-phenyl)-5-butyloxy-5H-[1]benzopyrano[4,3-d]pyrimidin] |  | -29 | 
CCOC1Oc2ccccc2-c2nc(-c3ccccc3)ncc21 (stereo not shown) [2-Phenyl-5-äthoxy-5H-[1]benzopyrano[4,3-d]pyrimidin] |  | -61 | 
